Assay results reported in US20230095341A1, “COMPOSITIONS AND METHODS FOR TREATING NEURODEGENERATIVE, MYODEGENERATIVE, AND LYSOSOMAL STORAGE DISORDERS” (GEORGETOWN UNIVERSITY, priority 2020, published 2023).
“Also recorded” adds a separate entry of the source.

How the values were obtained:
[1] = biological target: T1, phosphorylated DDR1 (pDDR1 Tyr513, 296) (Mus musculus, UniProt Q03146); assay: Western blot of phosphorylated DDR1; assay type: in vivo, mouse (rTG4510); conditions: vs DMSO, normalized to actin
T1 construct: Samples collected from DMSO, 2.5 mg/kg-, and 5.0 mg/kg-treated animals were electrophoresed; from tissue; the ELISA samples were total brain lysates
T1 sequence (Q03146 20-911): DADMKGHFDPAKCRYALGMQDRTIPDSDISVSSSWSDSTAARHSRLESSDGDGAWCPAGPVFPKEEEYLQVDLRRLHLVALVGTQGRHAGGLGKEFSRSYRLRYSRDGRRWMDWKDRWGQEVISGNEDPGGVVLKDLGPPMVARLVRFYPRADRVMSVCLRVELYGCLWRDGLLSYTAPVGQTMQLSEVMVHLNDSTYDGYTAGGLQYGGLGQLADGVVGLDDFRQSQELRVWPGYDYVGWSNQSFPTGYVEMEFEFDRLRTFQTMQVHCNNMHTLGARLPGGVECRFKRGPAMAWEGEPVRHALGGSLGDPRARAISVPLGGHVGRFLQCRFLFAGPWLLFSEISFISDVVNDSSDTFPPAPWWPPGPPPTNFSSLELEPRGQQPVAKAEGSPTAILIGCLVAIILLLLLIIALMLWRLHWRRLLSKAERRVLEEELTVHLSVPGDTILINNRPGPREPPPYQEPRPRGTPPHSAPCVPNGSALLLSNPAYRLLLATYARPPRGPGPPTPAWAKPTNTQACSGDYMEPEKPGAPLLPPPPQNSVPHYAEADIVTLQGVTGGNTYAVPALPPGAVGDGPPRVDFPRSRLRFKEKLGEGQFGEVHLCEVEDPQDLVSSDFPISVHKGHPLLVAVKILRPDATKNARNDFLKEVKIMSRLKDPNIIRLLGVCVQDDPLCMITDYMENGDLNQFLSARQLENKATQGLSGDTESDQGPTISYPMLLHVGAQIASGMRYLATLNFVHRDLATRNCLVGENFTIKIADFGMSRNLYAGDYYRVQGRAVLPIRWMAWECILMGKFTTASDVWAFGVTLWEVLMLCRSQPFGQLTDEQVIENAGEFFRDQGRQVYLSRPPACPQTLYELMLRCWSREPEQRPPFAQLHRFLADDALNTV

p-Tau (Ser396) = assay: pTau Ser396 ELISA of total brain lysates; assay type: in vivo, mouse (rTG4510, expressing human P301L tau); conditions: for reduction in pTau Ser396: vs DMSO
Protocol: (§1) Tauopathy rTG4510 mice (i.e., a mouse model that clinically manifest a tauopathy), expressing human P301L tau driven by a CAMrII promoter, approximately 9-12 months old, were treated intraperitoneally (I.P.) for 21 consecutive days, with 2.5 mg/kg (n=6) BK40197, 5.0 mg/kg (n=6) BK40197, or Dimethyl sulfoxide (DMSO) (n=7).
pTau Ser396 (Invitrogen, Cat. No. KHB7031, Carlsbad, Calif.) were performed according to manufacturer's protocol on samples collected from DMSO, 2.5 mg/kg-, and 5.0 mg/kg-treated animals. Samples for ELISA were total brain lysates extracted in IX STEN buffer.

[2] = tested on: Tauopathy rTG4510 mice expressing human P301L tau; assay: Overnight nest shredding (nesting) behavior; assay type: in vivo, mouse; conditions: 2.5 mg/kg I.P., three weeks
Protocol: Tauopathy rTG4510 mice (i.e., a mouse model that clinically manifest a tauopathy), expressing human P301L tau driven by a CAMrII promoter, approximately 9-12 months old, were treated intraperitoneally (I.P.) for 21 consecutive days, […], or Dimethyl sulfoxide (DMSO) (n=7).
Then, blinded, independent observers reviewed images of the overnight shredding and the average quality scores were calculated.
For nest shredding, Mann-Whitney analysis was used within groups, between timepoints, and Kruskal-Wallis analysis was used between treatment groups. For open-field studies, : ordinary one-way ANOVA or Student's I test was used. […]
Blinded independent observers reviewed images of the overnight shredding and the average quality scores were calculated.

[3] = tested on: p-Tau AT8 (Ser202, Thr205); assay: Western blot of p-Tau AT8 (Ser202, Thr205); assay type: in vivo, mouse (rTG4510, expressing human P301L tau); conditions: 2.5 mg/kg; vs DMSO
Protocol: as §1
(§2) Samples collected from DMSO, 2.5 mg/kg-, and 5.0 mg/kg-treated animals were electrophoresed in a NuPAGE 10% Bis-Tris gel and transferred to a nitrocellulose membrane. Membranes were then probed for total humnan tau (HT-7 antibody and Tau-5 antibody) and phospho-tau (pTau AT180 antibody and pTau AT8 antibody), as well as actin, and treated with an anti-mouse secondary antibody. before exposure using SuperSignal West Dura (Thermo Fisher Scientific, Waltham, Mass.) substrates. Some animials were excluded from analysis due to low transgene expression.

p-Tau AT180 (Thr231) = assay: Western blot of p-Tau AT180 (Thr231); assay type: in vivo, mouse (rTG4510, expressing human P301L tau); conditions: 2.5 mg/kg; vs DMSO
Protocol: as §1, §2

[4] = tested on: Tauopathy rTG4510 mice expressing human P301L tau; assay: Open-field behavior; assay type: in vivo, mouse
Protocol: as §1
Open-field behavior was assessed in an open-field apparatus where animals were tracked by photocell beams along the arena floor for 60 minutes. Data were collected and analyzed for total distance traveled (cm), total time spent moving (sec), and velocity (distance/time) during the 60-minute trial. A center zone was digitally defined in the software, in the center of the apparatus, and center zone entries during the 60-minute trial were recorded.
For nest shredding, Mann-Whitney analysis was used within groups, between timepoints, and Kruskal-Wallis analysis was used between treatment groups. For open-field studies, : ordinary one-way ANOVA or Student's I test was used.

[5] = tested on: B35 rat neuroblastoma cells; assay: MTT assay, cell viability; assay type: cell-based; conditions: 5 hours, concentration given in the value
Protocol: (§3) Rat neuroblastoma B35 cells were grown in Dulbecco's Modified Eagle's Medium (DMEM) with 10% Fetal Bovine Serum (FBS) and 1% penicillin/streptomycin and incubated at 37° C. with 5% CO2. For the experiments, cells were transferred to 12-well plates (Cat. #150628, ThermoFisher, Waltham, Mass.) and grown to at least 70% confluence. Transient transfection was performed with 3pg P301L tau (Cat. #30145, Addgene) cDNA or 3pg human a-synuclein cDNA using Fugene HD transfection reagent (Cat. #E2311, Promega, Madison Wis.) for 24 hours. Cells were treated with ImM, I00pM, 10pM, IpM, 0.lIM, 0.01pMl, and 0.001pM dissolved in DMSO or an equivalent SuL of DMSO for 5 hours. Cell culture media was collected and cells were harvested using sodium-tris, EDTA, NP-40 (STEN) buffer and centrifuged at 10,000×g for 20 minutes at 4′C and supernatant was collected. Cell viability was determined via lactate dehydrogenase assay (Cat. #88954, Thermofisher) and MTT assay (Cat. #V13154, Thennofisher). Protein was extracted by removing culture medium and adding 0.2 ml lx STEN buffer (50 mM Tris (pH 7.6), 150 mM NaCl, 2 mM EDTA, 0.2% NP-40, 0.2% BSA, 20 mM PMSF and protease cocktail inhibitor) to cell layer and incubated on ice for 10 minutes. The bottom of the well was scraped and allowed to incubate on ice for an additional 10 minutes. Cell lysates were collected, stored at -80° C., and used for additional analyses.
(§4) Compound 1 (BK5018), Compound 2 (BK5026), Compound 3 (BK5029), Compound 4 (BD5040), Compound 6 (CL2-296). Compound 7 (CL-2-287-1) and Compound 8 (CL-2-287-2) with molecular weights of 284, 339.265, 264, 339, 269 and 247 gimol, respectively, were diluted in Dimethyl Sulfoxide (DMSO) to final concentrations of 100 pM, 10 µM, 1 pM, 0.1 pM, 0.01 pM, and 0.001 pM. Drugs were stored at −80° C.
To measure cell viability, cells were incubated with 500 pL of Dulbecco's Modified Eagle's Medium (DMEf) containing 50 pL of (3-[4,5-dimethylthiazol-2-yl]-2,5-diphenyl-tetrazolium bromide (ivT)) for 5 hours at 37° C. and 5% CO2. The media was aspirated so that 125 uL of media remained. The formazan salts were dissolved in 250 uL of DMSO. Absorbance was read against a blank containing 125 uL of media and MTT, and 250 uL of DMSO at 570 mn.

tau = assay: Tau ELISA of whole brain lysates from rTG4510 mice (CL-287-2); assay type: in vivo, mouse (rTG4510, expressing human P301L Tau); conditions: 5 mg/kg; 12 month old rTG4510 mice
Protocol: Tauopathy rTG4510 mice expressing human P301L Tau driven by CAMIII were treated I.P. for 7 or 21 consecutive days with 1.25 mg/kg, 2.5 mg/kg, 5.0 mg/kg of BK40143 or Dimethyl sulfoxide (DMSO).
pTau Ser396 (Invitrogen, KHB7031) ELISA was performed according to manufacturer's protocol on samples collected from DMSO and 2.5mgkg. S.Omg′kg, and 10 mg/kg treated mice. Samples were total brain lysates extracted in lX STEN buffer. Ordinary one-way ANOVA or Student's ! test was used. * P<0.05

[6] = tested on: B35 rat neuroblastoma cells; assay: Lactate dehydrogenase (LDH) assay, cell toxicity; assay type: cell-based; conditions: 5 hours, concentration given in the value
Protocol: as §3, §4
Cellular cytotoxicity was quantitatively measured by assessment of LDH, a cytosolic enzyme that is released from damaged cells into the cellular media, after exposure to the drug 5 hours after initial dosage. The cell culture media was collected, and an aliquot was coupled with a lactate and NAD+. LDH catalyzes the reaction that converts lactate into pyruvate to produce NADH. NADH, in turn, reduces a tetrazolium salt (NT) into a red fornazan product. The amount of LDH in the media is proportional to the amount of formazan which was measured at 490 nn. The absorbance at 680 nm, to measure the background signal from the instrument, was subtracted from the absorbance at 490 nm to calculate the LDH activity. CelfCulture

reduction in phosphorylated DDR1 (pDDR1 Tyr513, 296) ([1]; 2.5 mg/kg) [%] | reduction in phosphorylated DDR1 (pDDR1 Tyr513, 296) ([1]; 5.0 mg/kg) [%] | SMILES | reduction in pTau Ser396 (p-Tau (Ser396); 2.5 mg/kg) [%] | reduction in pTau Ser396 (p-Tau (Ser396); 5.0 mg/kg) [%] | p-Tau (Ser396) levels (p-Tau (Ser396); dose dependent, 2.5 and 5.0 mg/kg, quantitative ELISA) | nesting raw scores (nesting qualitative score) ([2]; vs 0 weeks (Mann-Whitney P=0.09) and vs DMSO (Kruskal-Wallis P=0.06)) | nesting mean difference scores ([2]; vs DMSO (Kruskal-Wallis P=0.06)) | reduction in the ratio of p-Tau AT8 (Ser202, Thr205) to total Tau [3] [%] | reduction in the ratio of p-Tau (Thr231) (AT180) to total Tau (p-Tau AT180 (Thr231)) [%] | overall motor ability (open field) ([4]; 5.0 mg/kg I.P., 60 minutes open field) | open-field distance travelled ([4]; 5.0 mg/kg, sixty minutes, vs DMSO (ANOVA p=0.29)) | open-field time spent moving ([4]; 5.0 mg/kg, sixty minutes, vs DMSO (ANOVA p=0.32)) | hyperactivity/anxiety by observed center zone entries ([4]; 5.0 mg/kg, vs DMSO) | open-field velocity ([4]; 5.0 mg/kg, vs DMSO) | cell toxicity, as measured by MTT assay [5] | tau in whole brain lysates (tau) | cell toxicity, as measured by LDH assay [6]
22 | 21 | Cc1cccc(-c2cc3nccc(N4CCOCC4)c3s2)c1 [BK40197, 4-(2-(m-Tolyl)thieno[3,2-b]pyridin-7-yn)morpholine] | 11 | 23 | significantly reduces | nesting performance improved; also recorded: increase in performance | nesting performance improved; also recorded: increase in performance | 14 | 22 | does not alter overall motor ability | non-significant reduction | non-signicant reduction; also recorded: non-significant reduction | no sign of hyperactivity/anxiety; also recorded: no sign of hyperactivity % anxiety | no difference in velocity |  |  | 
 |  | O=C(O)c1ccccc1Nc1cccc(Cl)c1 [CL-2-287-2, 2-((3-Chlorophenyl)amino)benzoic acid] |  |  |  |  |  |  |  |  |  |  |  |  | at 10 pM or less did not show increased cell toxicity | significant reduction | at 100 uM or less did not show increased cell toxicity; also recorded: at 100 pM or less did not show increased cell toxicity
